Experimental data reported in ChEMBL document CHEMBL3045312, “Projuvenoids: synthesis and biological evaluation of sulfenylated, sulfinylated, and sulfonylated carbamates” (Arch Insect Biochem Physiol, 1996).
Activity calls are given as the source filed them. The rule behind the calls is not given here.

Columns and labels:
Pieris brassicae [1] = assay: Juvenile hormone mimicking activity against fifth-instar larval stage of Pieris brassicae reared on cabbage plants assessed as morphogenetic changes measured per larvae applied topically to dorsal surface of larvae measured post pupal ecdysis; type: functional
Sitophilus oryzae [2] = assay: Juvenile hormone mimicking activity against adult Sitophilus oryzae (rice weevil) infested wheat kernels assessed as suppression of progeny development at 1 to 100 ppm applied through diet for 21 days measured after 9 weeks; type: functional, organism-based
[3] = Lipophilicity, log P of the compound; type: physicochemical; conditions: octanol/water
Bemisia tabaci [4] = assay: Juvenile hormone mimicking activity against Bemisia tabaci (sweet potato whitefly) infested cotton assessed as suppression of nymph emergence at 200 g/ha applied as emulsifiable concentrate through spray measured on day 12 under field conditions (reference value: 92%); type: functional
Bemisia tabaci [5] = assay: Juvenile hormone mimicking activity against Bemisia tabaci (sweet potato whitefly) infested cotton assessed as suppression of adult emergence at 200 g/ha applied as emulsifiable concentrate through spray measured on day 12 under field conditions (reference value: 89%); type: functional
Bemisia tabaci [6] = assay: Juvenile hormone mimicking activity against Bemisia tabaci (sweet potato whitefly) infested cotton assessed as suppression of nymph emergence at 100 g/ha applied as emulsifiable concentrate through spray measured on day 12 under field conditions (reference value: 92%); type: functional
Sitophilus oryzae [7] = assay: Juvenile hormone mimicking activity against adult Sitophilus oryzae (rice weevil) infested wheat kernels assessed as suppression of progeny development at 1 ppm applied through diet for 21 days measured after 9 weeks; type: functional, organism-based
Bemisia tabaci [8] = assay: Juvenile hormone mimicking activity against Bemisia tabaci (sweet potato whitefly) infested cotton assessed as suppression of nymph emergence at 50 g/ha applied as emulsifiable concentrate through spray measured on day 12 under field conditions (reference value: 92%); type: functional
Bemisia tabaci [9] = assay: Juvenile hormone mimicking activity against Bemisia tabaci (sweet potato whitefly) infested cotton assessed as suppression of adult emergence at 100 g/ha applied as emulsifiable concentrate through spray measured on day 12 under field conditions (reference value: 89%); type: functional
Bemisia tabaci [10] = assay: Juvenile hormone mimicking activity against Bemisia tabaci (sweet potato whitefly) infested cotton assessed as suppression of adult emergence at 50 g/ha applied as emulsifiable concentrate through spray measured on day 12 under field conditions (reference value: 89%); type: functional
Pieris brassicae [11] = assay: Ratio of fenoxycarb ID50 to compound ID50 for fifth-instar larval stage of Pieris brassicae; type: functional
Bemisia tabaci [12] = assay: Juvenile hormone mimicking activity against Bemisia tabaci (sweet potato whitefly) infested cotton assessed as suppression of nymph emergence at 200 g/ha applied as wettable powder through spray measured on day 12 under field conditions (reference value: 92%); type: functional
Bemisia tabaci [13] = assay: Juvenile hormone mimicking activity against Bemisia tabaci (sweet potato whitefly) infested cotton assessed as suppression of nymph emergence at 100 g/ha applied as wettable powder through spray measured on day 12 under field conditions (reference value: 92%); type: functional
Bemisia tabaci [14] = assay: Juvenile hormone mimicking activity against Bemisia tabaci (sweet potato whitefly) infested cotton assessed as suppression of adult emergence at 400 g/ha applied as wettable powder through spray measured on day 12 under field conditions (reference value: 89%); type: functional
Bemisia tabaci [15] = assay: Juvenile hormone mimicking activity against Bemisia tabaci (sweet potato whitefly) infested cotton assessed as suppression of adult emergence at 200 g/ha applied as wettable powder through spray measured on day 12 under field conditions (reference value: 89%); type: functional
Bemisia tabaci [16] = assay: Juvenile hormone mimicking activity against Bemisia tabaci (sweet potato whitefly) infested cotton assessed as suppression of nymph emergence at 400 g/ha applied as wettable powder through spray measured on day 12 under field conditions (reference value: 92%); type: functional
Bemisia tabaci [17] = assay: Juvenile hormone mimicking activity against Bemisia tabaci (sweet potato whitefly) infested cotton assessed as suppression of adult emergence at 100 g/ha applied as wettable powder through spray measured on day 12 under field conditions (reference value: 89%); type: functional

| Structure (SMILES) | ID50 (Pieris brassicae [1]) [ng] | Activity (Sitophilus oryzae [7]) | also measured |
| --- | --- | --- | --- |
| CC(C)OC(=O)NCCOc1ccc(Oc2ccccc2)cc1 | 24 | – | – |
| CCOC(=O)NCCOc1ccc(Oc2ccc(Cl)cc2)cc1 | 22 | – | – |
| COC(C)(C)CCC[C@H](C)C/C=C/C(C)=C/C(=O)OC(C)C [METHOPRENE] | 60 | – | Activity (Sitophilus oryzae [2]): Active; logP [3]: 5.21 |
| CCOC(=O)N(CCOc1ccc(Oc2ccccc2)cc1)[S+]([O-])N(CCOc1ccc(Oc2ccccc2)cc1)C(=O)OCC | 2.2 | Active | Activity (Bemisia tabaci [4]): 16%; Activity (Bemisia tabaci [5]): 19%; Activity (Bemisia tabaci [6]): 33%; Activity (Bemisia tabaci [8]): 47%; Activity (Bemisia tabaci [9]): 31%; Activity (Bemisia tabaci [10]): 36% |
| CC(C)OC(=O)N(CCOc1ccc(Oc2ccccc2)cc1)SN(CCOc1ccc(Oc2ccccc2)cc1)C(=O)OC(C)C | 22 | – | – |
| CCOC(=O)CC(SP(=S)(OC)OC)C(=O)OCC (configuration not stated) | – | – | Activity (Sitophilus oryzae [2]): Active |
| CCOC(=O)N(CCOc1ccc(Oc2ccccc2)cc1)S(=O)(=O)N(CCOc1ccc(Oc2ccccc2)cc1)C(=O)OCC | >100 | – | – |
| CCCCCCCCCCCCCCCCCN(SN(CCOc1ccc(Oc2ccccc2)cc1)C(=O)OCC)C(=O)OCc1ccccc1 | 6.4 | Active | – |
| CCOC(=O)N(CCOc1ccc(Oc2ccc(Cl)cc2)cc1)[S+]([O-])N(CCOc1ccc(Oc2ccc(Cl)cc2)cc1)C(=O)OCC | 9 | – | – |
| CCOC(=O)N(CCOc1ccc(Oc2ccc(Cl)cc2)cc1)SN(CCOc1ccc(Oc2ccc(Cl)cc2)cc1)C(=O)OCC | 26 | – | – |
| CCCCCCCCCCCCOC(=O)N(CCCC)SN(CCOc1ccc(Oc2ccccc2)cc1)C(=O)OCC | 2.8 | Active | Ratio (Pieris brassicae [11]): 6 |
| CCOC(=O)N(CCOc1ccc(Oc2ccccc2)cc1)SN(CCOc1ccc(Oc2ccccc2)cc1)C(=O)OCC | 2.8 | Active | – |
| CC(C)OC(=O)N(CCOc1ccc(Oc2ccccc2)cc1)[S+]([O-])N(CCOc1ccc(Oc2ccccc2)cc1)C(=O)OC(C)C | 20 | – | – |
| CCCCCCCCOC(=O)N(C)SN(CCOc1ccc(Oc2ccccc2)cc1)C(=O)OCC | 3.4 | – | Ratio (Pieris brassicae [11]): 6 |
| CCOC(=O)NCCOc1ccc(Oc2ccccc2)cc1 [PHENOXYCARB] | 21 | Active | Activity (Bemisia tabaci [12]): 34%; Activity (Bemisia tabaci [13]): 41%; Activity (Bemisia tabaci [14]): 20%; Activity (Bemisia tabaci [15]): 29%; logP [3]: 4.07; Activity (Bemisia tabaci [16]): 21%; Activity (Bemisia tabaci [17]): 43% |
